The values below come from ChEMBL document CHEMBL5113400, “Design, synthesis, and biological evaluation of trizole-based heteroaromatic derivatives as Bcr-Abl kinase inhibitors” (Eur J Med Chem, 2022).

The structures appear in SMILES notation. Activity calls are given as the source filed them. No cut-off for these calls is given here.

Assay [1] addresses Vascular endothelial growth factor receptor 2 (Homo sapiens) (UniProt P35968). Briefly: Inhibition of recombinant human KDR at 10 uM for 10 mins followed by substrate addition in presence of ATP and measured after 60 mins by HTRF assay. To be noted: time 70.0 min. (In general: TR-FRET usually uses a lanthanide donor and a delayed reading to cut background.)
A further assay concerns the target Bcr/Abl fusion protein (Homo sapiens, UniProt P00519, T315I). Put plainly: Inhibition of Bcr-Abl T315I mutant (unknown origin) incubated for 1 hr in presence of ATP by ADP-Glo kinase assay. The assay is classed as protein assay. (In general: ADP-Glo turns the ADP formed in a reaction into a luminescent signal.)
The test system of assay [2] is K562. Put plainly: Induction of apoptosis in human K562 cells assessed as necrotic cells at 10 uM incubated for 48 hrs by Annexin V-FITC/PI staining based flow cytometry analysis (Rvb= 0.09%). The assay is classed as functional.
The target in assay [3] is Vascular endothelial growth factor receptor 2 (Homo sapiens) (UniProt P35968). Briefly: Inhibition of recombinant human KDR at 10 uM for 10 mins followed by substrate addition in presence of ATP and measured after 100 mins by ADP-Glo kinase assay. To be noted: time 110.0 min.
Vascular endothelial growth factor receptor 2 (Homo sapiens), sequence (P35968 whole entry, the tested form may be a part): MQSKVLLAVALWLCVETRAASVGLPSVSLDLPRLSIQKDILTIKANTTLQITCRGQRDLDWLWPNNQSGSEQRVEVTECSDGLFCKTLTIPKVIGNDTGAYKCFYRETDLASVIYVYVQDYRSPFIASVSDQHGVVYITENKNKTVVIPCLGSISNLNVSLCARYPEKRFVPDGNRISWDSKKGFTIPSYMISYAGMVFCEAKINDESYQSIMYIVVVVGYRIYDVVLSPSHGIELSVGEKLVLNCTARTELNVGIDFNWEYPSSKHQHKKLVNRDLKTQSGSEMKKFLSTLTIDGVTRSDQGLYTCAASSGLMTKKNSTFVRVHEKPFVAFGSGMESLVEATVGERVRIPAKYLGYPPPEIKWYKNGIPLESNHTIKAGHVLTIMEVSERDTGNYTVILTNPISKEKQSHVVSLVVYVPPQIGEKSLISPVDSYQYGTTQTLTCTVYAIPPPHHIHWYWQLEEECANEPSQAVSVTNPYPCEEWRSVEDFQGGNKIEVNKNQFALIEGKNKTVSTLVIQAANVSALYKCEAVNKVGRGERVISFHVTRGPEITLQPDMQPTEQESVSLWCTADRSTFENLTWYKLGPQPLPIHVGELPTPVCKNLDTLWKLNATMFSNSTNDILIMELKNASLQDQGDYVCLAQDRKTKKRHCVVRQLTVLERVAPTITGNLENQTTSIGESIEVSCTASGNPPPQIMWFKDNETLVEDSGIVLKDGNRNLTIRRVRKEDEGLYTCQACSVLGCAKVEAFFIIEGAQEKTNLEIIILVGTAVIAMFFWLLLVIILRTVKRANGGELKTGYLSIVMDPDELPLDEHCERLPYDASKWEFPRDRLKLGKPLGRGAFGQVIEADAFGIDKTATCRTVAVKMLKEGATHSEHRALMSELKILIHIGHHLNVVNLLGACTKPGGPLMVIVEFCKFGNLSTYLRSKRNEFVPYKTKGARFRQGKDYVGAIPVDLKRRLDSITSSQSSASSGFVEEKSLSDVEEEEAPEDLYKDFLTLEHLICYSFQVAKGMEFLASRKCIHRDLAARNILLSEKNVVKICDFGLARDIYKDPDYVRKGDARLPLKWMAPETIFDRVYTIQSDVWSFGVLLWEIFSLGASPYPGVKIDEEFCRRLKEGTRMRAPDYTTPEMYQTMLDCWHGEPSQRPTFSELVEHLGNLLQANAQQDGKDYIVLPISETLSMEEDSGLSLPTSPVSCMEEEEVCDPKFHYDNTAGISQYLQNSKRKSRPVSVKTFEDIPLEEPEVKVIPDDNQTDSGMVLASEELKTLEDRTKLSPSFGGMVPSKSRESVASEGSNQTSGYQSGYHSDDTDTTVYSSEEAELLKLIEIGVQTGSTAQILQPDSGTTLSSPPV
Assay [4] deals with K562. Put plainly: Induction of apoptosis in human K562 cells assessed as late apoptotic cells at 1 uM incubated for 48 hrs by Annexin V-FITC/PI staining based flow cytometry analysis (Rvb= 14.66%). Format: functional.
Assay [5] deals with K562. Briefly: Induction of apoptosis in human K562 cells assessed as viable cells at 10 uM incubated for 48 hrs by Annexin V-FITC/PI staining based flow cytometry analysis (Rvb=80.89%). As to conditions: read-out: Activity. The assay is classed as functional.
Assay [6] has as its system K562. Briefly: Induction of apoptosis in human K562 cells assessed as viable cells at 1 uM incubated for 48 hrs by Annexin V-FITC/PI staining based flow cytometry analysis (Rvb=80.89%). Format: functional. As to conditions: read-out: Activity. In general terms: In flow cytometry, cells or beads pass a laser one at a time.
In assay [7] the test system is K562. Briefly: Induction of apoptosis in human K562 cells assessed as necrotic cells at 5 uM incubated for 48 hrs by Annexin V-FITC/PI staining based flow cytometry analysis (Rvb= 0.09%). Format: functional.
For assay [8], the target named is Bcr/Abl fusion protein (Homo sapiens) (UniProt P00519+P11274). Briefly: Inhibition of Bcr-Abl phosphorylation at Tyr245 residue in human K562 cells expressing wild type Bcr-Abl at 0.1 to 15 uM measured after 48 hrs by Western blot analysis. To be noted: dose 0.1-15 µM, DDE = dose-dependent effect. Format: cell-based.
The test system of assay [9] is K562. Put plainly: Induction of apoptosis in human K562 cells assessed as viable cells at 5 uM incubated for 48 hrs by Annexin V-FITC/PI staining based flow cytometry analysis (Rvb=80.89%). The assay is classed as functional. As to conditions: read-out: Activity.
Assay [10] deals with Dual specificity tyrosine-phosphorylation-regulated kinase 1B (Homo sapiens) (UniProt Q9Y463). Briefly: Inhibition of recombinant human DYRK1B at 10 uM for 10 mins followed by substrate addition in presence of ATP and measured after 100 mins by ADP-Glo kinase assay. As to conditions: time 110.0 min.
Dual specificity tyrosine-phosphorylation-regulated kinase 1B (Homo sapiens), sequence (Q9Y463 whole entry, looked up): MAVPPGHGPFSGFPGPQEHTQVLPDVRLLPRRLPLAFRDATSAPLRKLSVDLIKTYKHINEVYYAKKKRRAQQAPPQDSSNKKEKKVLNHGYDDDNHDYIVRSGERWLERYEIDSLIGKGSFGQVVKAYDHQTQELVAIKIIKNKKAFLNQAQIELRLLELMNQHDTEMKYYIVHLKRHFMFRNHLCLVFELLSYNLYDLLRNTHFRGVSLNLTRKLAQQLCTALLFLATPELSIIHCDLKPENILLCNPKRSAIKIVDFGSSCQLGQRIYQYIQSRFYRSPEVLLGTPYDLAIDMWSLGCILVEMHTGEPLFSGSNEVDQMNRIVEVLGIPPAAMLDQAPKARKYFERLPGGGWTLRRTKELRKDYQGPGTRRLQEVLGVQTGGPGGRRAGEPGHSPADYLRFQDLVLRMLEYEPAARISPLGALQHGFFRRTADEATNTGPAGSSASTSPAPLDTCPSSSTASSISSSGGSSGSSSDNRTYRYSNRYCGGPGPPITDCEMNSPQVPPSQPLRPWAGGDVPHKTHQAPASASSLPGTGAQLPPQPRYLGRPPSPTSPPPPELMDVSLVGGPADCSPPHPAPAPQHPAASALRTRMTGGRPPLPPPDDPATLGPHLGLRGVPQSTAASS
In assay [11] the target is T1, Tyrosine-protein kinase ITK/TSK (Homo sapiens) (UniProt Q08881).
T1 sequence (whole entry): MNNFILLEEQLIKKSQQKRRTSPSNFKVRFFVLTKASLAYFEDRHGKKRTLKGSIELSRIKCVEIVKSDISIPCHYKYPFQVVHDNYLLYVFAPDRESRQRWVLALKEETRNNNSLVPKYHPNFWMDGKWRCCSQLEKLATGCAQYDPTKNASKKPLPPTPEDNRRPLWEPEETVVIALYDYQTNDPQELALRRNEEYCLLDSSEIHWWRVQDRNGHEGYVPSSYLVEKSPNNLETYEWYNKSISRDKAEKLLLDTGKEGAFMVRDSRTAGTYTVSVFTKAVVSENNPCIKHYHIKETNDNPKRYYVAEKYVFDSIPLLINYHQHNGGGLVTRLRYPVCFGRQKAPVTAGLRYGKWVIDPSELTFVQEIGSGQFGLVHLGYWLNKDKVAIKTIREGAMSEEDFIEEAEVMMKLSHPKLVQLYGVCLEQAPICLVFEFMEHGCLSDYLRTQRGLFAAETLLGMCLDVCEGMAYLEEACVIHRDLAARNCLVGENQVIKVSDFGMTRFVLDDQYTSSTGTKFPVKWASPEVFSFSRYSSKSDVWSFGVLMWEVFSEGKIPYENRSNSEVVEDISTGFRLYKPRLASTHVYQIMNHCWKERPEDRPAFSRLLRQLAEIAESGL
Put plainly: Inhibition of recombinant human ITK at 10 uM for 10 mins followed by substrate addition in presence of ATP and measured after 100 mins by ADP-Glo kinase assay. As to conditions: time 110.0 min.

The subject of assay [12] is K562. Put plainly: Induction of cell cycle arrest in human K562 cells assessed as reduction in G0/G1 phase at 1 to 10 uM incubated for 48 hrs by PI staining based flow cytometry. The assay is classed as functional. To be noted: dose 1-10 µM.
The target of assay [13] is T2, Signal transducer and activator of transcription 5A (Homo sapiens) (UniProt P42229).
T2 sequence (whole entry): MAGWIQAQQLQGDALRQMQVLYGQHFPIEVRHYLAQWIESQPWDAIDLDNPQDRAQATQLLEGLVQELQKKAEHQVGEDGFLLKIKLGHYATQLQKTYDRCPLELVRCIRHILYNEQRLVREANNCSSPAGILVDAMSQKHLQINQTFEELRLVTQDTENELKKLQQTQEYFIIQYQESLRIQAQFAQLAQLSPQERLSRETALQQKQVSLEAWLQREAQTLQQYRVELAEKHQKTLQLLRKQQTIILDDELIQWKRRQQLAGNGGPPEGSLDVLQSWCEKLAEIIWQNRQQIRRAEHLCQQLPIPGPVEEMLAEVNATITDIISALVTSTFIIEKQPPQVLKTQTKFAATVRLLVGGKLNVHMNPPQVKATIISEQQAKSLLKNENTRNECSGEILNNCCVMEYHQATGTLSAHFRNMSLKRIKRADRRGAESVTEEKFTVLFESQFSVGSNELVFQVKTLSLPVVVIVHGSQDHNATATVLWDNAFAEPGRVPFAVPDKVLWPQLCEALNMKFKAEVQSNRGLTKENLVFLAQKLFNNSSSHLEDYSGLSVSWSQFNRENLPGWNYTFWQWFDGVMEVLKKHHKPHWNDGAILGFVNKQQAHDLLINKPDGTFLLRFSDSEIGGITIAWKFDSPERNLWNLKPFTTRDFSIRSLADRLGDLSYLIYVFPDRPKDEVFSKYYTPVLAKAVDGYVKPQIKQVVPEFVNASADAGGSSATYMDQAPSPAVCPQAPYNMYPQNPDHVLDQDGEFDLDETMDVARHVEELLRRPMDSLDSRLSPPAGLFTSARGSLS
Briefly: Inhibition of STAT5 phosphorylation at Tyr694 residue in human K562 cells expressing wild type Bcr-Abl at 0.1 to 15 uM measured after 48 hrs by Western blot analysis. Format: cell-based. To be noted: dose 0.1-15 µM, DDE = dose-dependent effect.

As for `O=C(Nc1nc2ccc(-c3cn([C@@H]4CN[C@H](C(=O)Nc5ccc(Cl)cc5Cl)C4)nn3)nc2s1)C1CC1`, the inhibition – broadly, the drop in the measured response relative to a control, in per cent – in assay [1] was 47.7%; in assay [3], 47.7%; in [8] it was “Dde”; in assay [10], 68.4%; in assay [11], 41.1%; in assay [13], “Dde”. On Bcr/Abl fusion protein, the IC50 – broadly, the midpoint of a concentration-inhibition curve – was 0.19 µM. For the same molecule, the results for the Activity in the assay on K562 [2], in the assay on K562 [4] and in the assay with K562 [7] were 0.01%, 19.42% and 0.03%, respectively. In the assay on K562 [5], the viability at 10 µM is 49.7%. The viability at 1 µM in the assay with K562 [6] turned out to be 76.9%. Besides, the viability at 5 µM in the assay on K562 [9] turned out to be 66.5%. Further, the outcome in the assay with K562 [12] was Active.
